The values that follow come from patent US20260374794A1, “COMPOUNDS TARGETING MUTANT OF P53” (JACOBIO PHARMACEUTICALS CO., LTD., priority 2022, published 2026).

One experiment concerns the target T1, p53(Y220C) (Homo sapiens, UniProt P04637, Y220C).
T1 construct: His-p53 Y220C (94-294) protein
As to the kind of experiment: In vitro DNA binding assay (HTRF), His-p53 Y220C (94-294) with biotinylated p53 consensus DNA.
Details: not given
Type of experiment: biochemical. As for the experimental part:
After His-p53 Y220C (94-294) protein was placed with a compound in the present of MAb Anti His-Tb cryptate (Cisbio, Cat. NO. 61HI2TLA) in a 384 well microplate (Greiner) for 15 min at 25 °C, the assay plate was transferred into 27 °C incubator and incubated for 60 min. Biotinalyted p53 consensus DNA (ID: p53-SEQUENCE 2 —F: 5′(biotin)-[…] 3′ —R: 5′ […] 3′) was added into the assay plate in the present of Streptaidin-d2 (Cisbio, Cat. NO. 610SADLF) cryptate (Final concentration: 20 mM HEPES pH=7.4, 75 mM KCl, 1 mM MgCl2, 0.1% (w/v) BSA, 1 mM DTT, 2.5 nM His-P53 Y220C (94-294) protein, 0.33 nM MAb Anti His-Tb cryptate, 2.5 nM Streptaidin-d2 cryptate, 10 nM Biotinalyted DNA) and incubated for another 60 min. Wells containing 2 μM reference compound Ref-1a served as high control, and wells containing same percentage of DMSO served as low control. Homogeneous time-resolved fluorescence (HTRF) signals were read on Tecan Spark multimode microplate reader. HTRF ratios for each individual well were calculated by equation: HTRF ratio=(Signal F665/Signal F620)*1000. The percent of activation of compounds treated wells were normalized between high control and low control (% Activation=(HTRF ratiocompound treated−HTRF ratiolow control)/(HTRF ratiohigh control−HTRF ratiolow control)*100%). Then the data were analyzed either by fitting a 4-parameter logistic model or by Excel to calculate EC50 values. And the EC50 was the concentration at 50% Activation on the curve.
(In TR-FRET formats the signal depends on donor and acceptor labels being close together.)
`COc1cc(P(C)(C)=O)ccc1NCC#Cc1sc2c(N[C@H]3CN4CCC3CC4)cccc2c1CC(F)(F)F` [Example 46, (R)-(3-methoxy-4-((3-(7-(quinuclidin-3-ylamino)-3-(2,2,2-trifluoroethyl)benzo[b]thiophen-2-yl)prop-2-yn-1-yl)amino)phenyl)dimethylphosphine oxide] had an EC50 of 124 nM.

Staying with this experiment, now noted: HTRF; 27 °C; His-p53 Y220C (94-294) 2.5 nM; biotinylated DNA 10 nM; normalized to 2 μM Ref-1a; EC50 = concentration at 50% Activation; read-out: p53(Y220C) EC50.
Turning to `COc1cc(P(C)(C)=O)ccc1NCC#Cc1sc2c(NC3CCN(C)CC3)nccc2c1CC(F)(F)F` [Example 4, (3-methoxy-4-((3-(7-((1-methylpiperidin-4-yl)amino)-3-(2,2,2-trifluoroethyl)thieno[2,3-c]pyridin-2-yl)prop-2-yn-1-yl)amino)phenyl)dimethylphosphine oxide], the EC50 was 353 nM.

With `COc1cc(N2CC(=O)NS2(=O)=O)ccc1NCC#Cc1sc2c(N[C@@H]3CCN(C)C[C@@H]3F)cccc2c1CC(F)(F)F` [Example 5, 5-(4-((3-(7-(((3S,4R)-3-fluoro-1-methylpiperidin-4-yl)amino)-3-(2,2,2-trifluoroethyl)benzo[b]thiophen-2-yl)prop-2-yn-1-yl)amino)-3-methoxyphenyl)-1,2,5-thiadiazolidin-3-one-1,1-dioxide], the EC50 stood at 323 nM.

For the compound `COc1cc(P(C)(C)=O)ccc1NCC#Cc1sc2c(NC3CCS(=N)(=O)CC3)cccc2c1CC(F)(F)F` (centres unmarked) [Example 6, (4-((3-(7-((1-imino-1-oxidohexahydro-1l6-thiopyran-4-yl)amino)-3-(2,2,2-trifluoroethyl)benzo[b]thiophen-2-yl)prop-2-yn-1-yl)amino)-3-methoxyphenyl)dimethylphosphine oxide], the EC50 stood at 209 nM.

Take `COc1cc(P(C)(C)=O)ccc1NCC#Cc1sc2c(NCC3(F)CCN(C)CC3)cccc2c1CC(F)(F)F` [Example 16, (4-((3-(7-(((4-fluoro-1-methylpiperidin-4-yl)methyl)amino)-3-(2,2,2-trifluoroethyl)benzo[b]thiophen-2-yl)prop-2-yn-1-yl)amino)-3-methoxyphenyl)dimethylphosphine oxide]: the EC50 is 250 nM.

For `COc1cc(P(C)(C)=O)ccc1NCC#Cc1sc2c(N[C@H]3CCN(C)C[C@H]3F)cccc2c1C(C)C(F)(F)F` (stereo partly drawn) [Example 17, (4-((3-(7-(((3R,4S)-3-fluoro-1-methylpiperidin-4-yl)amino)-3-(1,1,1-trifluoropropan-2-yl)benzo[b]thiophen-2-yl)prop-2-yn-1-yl)amino)-3-methoxyphenyl)dimethylphosphine oxide], the EC50 is 251 nM.

As for `COc1cc(P(C)(C)=O)ccc1NCC#Cc1sc2c(N[C@@H]3CCN(C)C[C@@H]3F)cccc2c1C(C)C(F)(F)F` (stereo partly drawn) [Example 18, (4-((3-(7-(((3S,4R)-3-fluoro-1-methylpiperidin-4-yl)amino)-3-(1,1,1-trifluoropropan-2-yl)benzo[b]thiophen-2-yl)prop-2-yn-1-yl)amino)-3-methoxyphenyl)dimethylphosphine oxide], the EC50 was determined as 574 nM.

`CN1CC[C@@H](Nc2cccc3c(CC(F)(F)F)c(C#C[C@@H]4Cc5cc(P(C)(C)=O)ccc5N4)sc23)[C@@H](F)C1` [Example 21, ((S)-2-((7-(((3S,4R)-3-fluoro-1-methylpiperidin-4-yl)amino)-3-(2,2,2-trifluoroethyl)benzo[b]thiophen-2-yl)ethynyl)indolin-5-yl)dimethylphosphine oxide]: the EC50 came to 424 nM.

Consider `CN1CC[C@@H](Nc2cccc3c(CC(F)(F)F)c(C#C[C@H]4Cc5cc(P(C)(C)=O)ccc5N4)sc23)[C@@H](F)C1` [Example 22, ((R)-2-((7-(((3S,4R)-3-fluoro-1-methylpiperidin-4-yl)amino)-3-(2,2,2-trifluoroethyl)benzo[b]thiophen-2-yl)ethynyl)indolin-5-yl)dimethylphosphine oxide], for which the EC50 was found to be 313 nM.

Take `COc1cc([S@](=N)(=O)C2CCOCC2)ccc1NCC#Cc1sc2c(N[C@@H]3CCN(C)C[C@@H]3F)cccc2c1CC(F)(F)F` [Example 25, (R)-(4-((3-(7-(((3S,4R)-3-fluoro-1-methylpiperidin-4-yl)amino)-3-(2,2,2-trifluoroethyl)benzo[b]thiophen-2-yl)prop-2-yn-1-yl)amino)-3-methoxyphenyl)(imino)(tetrahydro-2H-pyran-4-yl)-16-sulfanone]: the EC50 is 62 nM.

On to `COc1cc([S@@](=N)(=O)C(C)C)ccc1NCC#Cc1sc2c(N[C@@H]3CCN(C)C[C@@H]3F)cccc2c1CC(F)(F)F` [Example 27, (S)-(4-((3-(7-(((3S,4R)-3-fluoro-1-methylpiperidin-4-yl)amino)-3-(2,2,2-trifluoroethyl)benzo[b]thiophen-2-yl)prop-2-yn-1-yl)amino)-3-methoxyphenyl)(imino)(isopropyl)-16-sulfanone], for which the EC50 was determined as 74 nM.

On to `COc1cc(P(C)(C)=O)ccc1NCC#Cc1sc2c(N[C@H]3CCCN(C)C3)cccc2c1CC(F)(F)F` [Example 29, (S)-(3-methoxy-4-((3-(7-((1-methylpiperidin-3-yl)amino)-3-(2,2,2-trifluoroethyl)benzo[b]thiophen-2-yl)prop-2-yn-1-yl)amino)phenyl)dimethylphosphine oxide], for which the EC50 amounted to 155 nM.

On to `COc1cc(P(C)(C)=O)ccc1NCC#Cc1sc2c(N[C@H]3CCN(C)C[C@H]3F)cccc2c1[C@H](O)C(F)(F)F` [Example 32, (4-((3-(7-(((3R,4S)-3-fluoro-1-methylpiperidin-4-yl)amino)-3-((S)-2,2,2-trifluoro-1-hydroxyethyl)benzo[b]thiophen-2-yl)prop-2-yn-1-yl)amino)-3-methoxyphenyl)dimethylphosphine oxide], for which the EC50 was 117 nM.

As to `COc1cc(S(C)(=O)=O)ccc1NCC#Cc1sc2c(N[C@H]3CCN(C)C[C@H]3F)cccc2c1CC(F)(F)F` [Example 35, (3R,4S)-3-fluoro-N-(2-(3-((2-methoxy-4-(methylsulfonyl)phenyl)amino)prop-1-yn-1-yl)-3-(2,2,2-trifluoroethyl)benzo[b]thiophen-7-yl)-1-methylpiperidin-4-amine], the EC50 is 192 nM.

On to `COc1cc(P(C)(C)=O)ccc1NCC#Cc1sc2c(N[C@H]3CCN(C)C[C@@H]3F)cccc2c1CC(F)(F)F` [Example 38, (4-((3-(7-(((3S,4S)-3-fluoro-1-methylpiperidin-4-yl)amino)-3-(2,2,2-trifluoroethyl)benzo[b]thiophen-2-yl)prop-2-yn-1-yl)amino)-3-methoxyphenyl)dimethylphosphine oxide], for which the EC50 stood at 373 nM.

In the case of `CN1CC[C@@H](Nc2cccc3c(CC(F)(F)F)c(C#CCNc4ccc(P(C)(C)=O)cc4-c4nc(=O)o[nH]4)sc23)[C@@H](F)C1` [Example 39, 3-(5-(dimethylphosphoryl)-2-((3-(7-(((3S,4R)-3-fluoro-1-methylpiperidin-4-yl)amino)-3-(2,2,2-trifluoroethyl)benzo[b]thiophen-2-yl)prop-2-yn-1-yl)amino)phenyl)-1,2,4-oxadiazol-5(2H)-one], the EC50 amounted to 292 nM.

`COc1cc(-c2nc(=O)o[nH]2)ccc1NCC#Cc1sc2c(N[C@@H]3CCN(C)C[C@@H]3F)cccc2c1CC(F)(F)F` [Example 40, 3-(4-((3-(7-(((3S,4R)-3-fluoro-1-methylpiperidin-4-yl)amino)-3-(2,2,2-trifluoroethyl)benzo[b]thiophen-2-yl)prop-2-yn-1-yl)amino)-3-methoxyphenyl)-1,2,4-oxadiazol-5(2H)-one]: the EC50 was found to be 473 nM.

Consider `[2H]C([2H])([2H])Oc1cc(P(C)(C)=S)ccc1NCC#Cc1sc2c(N[C@@H]3CCN(C)C[C@@H]3F)cccc2c1CC(F)(F)F` [Example 47, (4-((3-(7-(((3S,4R)-3-fluoro-1-methylpiperidin-4-yl)amino)-3-(2,2,2-trifluoroethyl)benzo[b]thiophen-2-yl)prop-2-yn-1-yl)amino)-3-(methoxy-d3)phenyl)dimethylphosphine sulfide], for which the EC50 stood at 180 nM.

In the case of `COc1cc([S@](=N)(=O)C(F)F)ccc1NCC#Cc1sc2c(N[C@@H]3CCN(C)C[C@@H]3F)cccc2c1CC(F)(F)F` [Example 51, (S)-(difluoromethyl)(4-((3-(7-(((3S,4R)-3-fluoro-1-methylpiperidin-4-yl)amino)-3-(2,2,2-trifluoroethyl)benzo[b]thiophen-2-yl)prop-2-yn-1-yl)amino)-3-methoxyphenyl)(imino)-16-sulfanone], the EC50 was determined as 188 nM.

On to `COc1cc([S@@](=N)(=O)C(F)F)ccc1NCC#Cc1sc2c(N[C@@H]3CCN(C)C[C@@H]3F)cccc2c1CC(F)(F)F` [Example 52, (R)-(difluoromethyl)(4-((3-(7-(((3S,4R)-3-fluoro-1-methylpiperidin-4-yl)amino)-3-(2,2,2-trifluoroethyl)benzo[b]thiophen-2-yl)prop-2-yn-1-yl)amino)-3-methoxyphenyl)(imino)-16-sulfanone], for which the EC50 is 135 nM.
